Test system: Mycobacterium tuberculosis H37Rv growth inhibition, no glycerol
Test: Confirmatory growth inhibition assay, Mycobacterium tuberculosis H37Rv, absence of glycerol (AID 449764);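 also: growth read after 7 days of incubation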
Details: for IC90: measured here: IC90 growth inhibition

Row | SMILES | IC50 | IC90
1 | CCOC(=O)[C@@H]1[C@H]2COc3cc(OC)ccc3[C@H]2N2C(=O)N(c3ccc(C(F)(F)F)cc3)C(=O)[C@]12C | 5.78 µM | 6.27 µM
2 | Cc1nnc(SCc2ccccc2Cl)n(N)c1=O | – | > 100 µM
3 | O=C(C[n+]1cc(-c2ccc(Cl)cc2)n2c1CCC2)Nc1nc(-c2ccccc2)cs1 | 23.4 µM | 26.7 µM
4 | O=C(NCCC1=CCCCC1)c1c(O)nc2sccn2c1=O | 66 µM | > 100 µM
5 | CCN(CC)CCN(C(=O)c1ccc(S(=O)(=O)N2CCCC2)cc1)c1nc2cc(C)cc(C)c2s1 | 11.7 µM | 13.5 µM
6 | O=C(N/N=C/c1cccc2cccnc12)[C@H]1C[C@@H]1c1ccccc1 | 38.2 µM | 56 µM
7 | O=c1[nH]c(=O)n(C2CCCO2)cc1F (stereo not given) | 57.1 µM | > 100 µM
8 | Cc1ccc(C(=O)Sc2cccccc2=O)cc1 | 1.53 µM | 2.12 µM
9 | COc1ccc(CN2CCCC(C(=O)c3ccc(SC)cc3)C2)cc1Cn1cccn1 (stereo not given) | 25.2 µM | 28.2 µM
10 | c1ccc(C[C@H]2CN=C(Nc3ccccc3)N2CCCC2CCCC2)cc1 | 33.1 µM | 44.5 µM
11 | Cc1cc(C)n(-c2nc(Nc3ccccc3C(F)(F)F)nc(-n3nc(C)cc3C)n2)n1 | 1.3 µM | 2.01 µM
12 | Nc1ccc(-c2nc3nc(N)nc(N)c3nc2-c2ccc(N)cc2)cc1 | 48.8 µM | > 100 µM
13 | Cc1ccc(CNc2ccc3c(c2)ncn3C(C)(C)C)cc1 | 19.9 µM | 28.8 µM
14 | Nc1c(C(=O)O)cnc2c(-c3ccc(Cl)cc3)cnn12 | 64 µM | 99.8 µM
15 | CCCOc1cccc(C(=O)NC(=S)Nc2ccc(N3CCN(C)CC3)cc2)c1 | – | > 100 µM
16 | O=C(N[C@H]1CCC(=O)N(CCSc2ccc(Br)cc2)CC1)OCc1ccccc1 | 32.9 µM | 46.6 µM
17 | O=C1c2ccccc2-c2onc3ccc(Oc4ccccc4)c1c23 | 10.3 µM | 14.4 µM
18 | CC(=O)Nc1sc2c(c1-c1nc3ccccc3s1)CCN(C(C)C)C2 | 8.64 µM | 11.2 µM
19 | N=c1oc2cc(O)ccc2cc1C(=O)Nc1ccc(Br)cc1 | 1.72 µM | 3.96 µM
20 | Cc1ccc(CNC(=O)c2sc3nc4c(c(C(F)(F)F)c3c2N)CCC4)cc1 | 46.3 µM | 50.9 µM
21 | Cc1ccccc1Cn1ccc(=NCc2ccccc2)cc1 | 10.2 µM | 14 µM
22 | CC(C)(C)c1ccc(C(O)CCCN2CCC(C(O)(c3ccccc3)c3ccccc3)CC2)cc1 (stereo not given) | 12 µM | 13.7 µM

Row | SMILES | IC50 | IC90
23 | CCCCN(C)S(=O)(=O)c1ccc(C(=O)Nc2nnc(-c3ccco3)o2)cc1 | 17.8 µM | 32.7 µM
24 | O=C(OCn1nnc2ccccc2c1=O)C1CCCCC1 | 5.88 µM | 6.69 µM
25 | N/C(=N\NC(=O)c1sccc1OCc1ccc(Cl)cc1Cl)c1ccccn1 | 32.3 µM | 39.4 µM
26 | CCN(CC)C(=O)[C@H]1CC(CC(=O)NCC23CC4CC(CC(C4)C2)C3)C(=O)N2CCc3c([nH]c4ccccc34)[C@]12C (stereo not given in full) | 19.4 µM | 29.7 µM
27 | c1ccc(-c2nccc(-c3ccc(-n4cnc5ccccc54)cc3)n2)nc1 | 19 µM | 23.7 µM
28 | CCn1c(SCC(=O)OC2CCCCC2)nc2ccccc2c1=O | 40.3 µM | 55.1 µM
29 | O=c1oc2ccccc2c(Nc2ccccc2O)c1[N+](=O)[O-] | 9.46 µM | 13.9 µM
30 | COc1ccc(-c2cc3c(=O)n(CC(=O)NCCCN4CCC(Cc5ccccc5)CC4)ncn3n2)cc1 | 28.1 µM | 39.7 µM
31 | Cc1[nH]n(-c2ccccc2)c(=O)c1C(C[N+](=O)[O-])c1ccccc1Cl (stereo not given) | 23.4 µM | 27.1 µM
32 | CCCC(/C=C/c1ccc(OC(C)=O)cc1)=C1/c2ccccc2C(=O)N1c1ccccc1 | 13.2 µM | 20.9 µM
33 | CCOC(=O)/C(=N/Nc1ccc(OC)cc1)N1CCCc2ccccc21 | 95.3 µM | > 100 µM
34 | COc1ccc(NC(=O)NC(C)C2CC3CCC2C3)cc1 (stereo not given) | 25.3 µM | 43.1 µM
35 | CN1C(=O)/C(=C/c2cccc(Cl)c2)Sc2ccc(C(=O)N3CCCC3)cc21 | 20.6 µM | 49.9 µM
36 | O=C(Nc1nnc(C2=COCCO2)o1)c1ccc(Cc2ccccc2)cc1 | 11.7 µM | 20.3 µM
37 | O=c1c(O)c(-c2cccs2)oc2ccccc12 | 34.4 µM | > 100 µM
38 | CCOC(=O)C1CCCc2c1[nH]c1c(C(N)=O)cccc21 (stereo not given) | 8.59 µM | 17.3 µM
39 | Cn1nc(-c2ccccn2)nc2c(=O)n(C)c(=O)nc1-2 | 12.5 µM | 13 µM
40 | Cc1ccc(C)c(S(=O)(=O)N2CCC(c3nc4c(nnn4Cc4ccc5c(c4)OCCO5)c(=O)[nH]3)CC2)c1 | 24.2 µM | > 100 µM
41 | Cc1ccc(C(=O)N/N=C(/CC(=O)c2cccs2)C(F)(F)F)cc1 | 2.25 µM | 3.18 µM
42 | O=C(CCl)c1ccc2c(c1)CCN2C(=O)C1CCCCC1 | 41.5 µM | > 100 µM
43 | CN(C)[C@@H]1C(=O)C(C(N)=O)=C(O)[C@@]2(O)C(=O)C3=C(O)c4c(O)cccc4[C@@](C)(O)C3C[C@@H]12 (stereo not given in full) | 9.73 µM | 27.4 µM
44 | CN(C)C/C=C/C(=O)Nc1cccc(-c2c[nH]c3ncnc(Oc4ccc(NC(=O)CC(=O)Nc5ccc(F)cc5)cc4F)c23)c1 | 12.3 µM | 14 µM

Row | SMILES | IC50 | IC90
45 | CC(C)Oc1ccc(C(=O)N/N=C/c2ccc(-c3ccc(S(=O)(=O)Nc4ncccn4)cc3)o2)cc1 | 55.8 µM | 89.7 µM
46 | O=C(Oc1ccccc1)c1ccccc1OS(=O)(=O)c1ccccc1 | 2.37 µM | 14.1 µM
47 | CC(C)CS(=O)(=O)C1=NN2C(=N)/C(=C\c3ccc(OC(=O)c4ccco4)cc3)C(=O)N=C2S1 | 20.9 µM | 26.5 µM
48 | O=C(OCC(=O)N1CCC(c2ccccc2)=N1)c1ccc(Cl)s1 | 97.6 µM | > 100 µM
49 | CCOc1ccc(/C=N/OCC(=O)Nc2cc(C)on2)cc1 | 90 µM | > 100 µM
50 | Cc1c2c(nc3ccccc13)CCC(C)C2 (stereo not given) | 21.7 µM | 37.1 µM
51 | CCn1c(C)nc2cc(C(=O)OC(C(F)(F)C(F)F)C(F)(F)C(F)F)ccc21 | 21.2 µM | 25.8 µM
52 | Cc1ccc(C2=NNC3(CCOC(C)(C)C3)S2)cc1 (stereo not given) | 27.1 µM | 41.3 µM
53 | COC(=O)C(C)Oc1ccc(-c2nccc(-c3ccccn3)n2)cc1 (stereo not given) | 3.91 µM | 6.95 µM
54 | COc1ccc([C@H]2CC(=O)C=C(c3ccc4c5c(cccc35)CC4)C2)cc1 | – | > 100 µM
55 | Cc1cc(C)c2nc(-c3ccncc3)cc(C(=O)N3CCN(Cc4ccccc4Cl)CC3)c2c1 | 31.3 µM | 43.7 µM
56 | CCOC(=O)C(C)Oc1ccc(NC(=O)C(Cl)(Cl)Cl)cc1 (stereo not given) | 3.99 µM | 5.86 µM
57 | CCOC(=O)CNC(=S)n1cnc(N)n1 | 45.8 µM | > 100 µM
58 | O=C(CSc1nnnn1-c1ccc2c(c1)OCCO2)OC1CCCCC1 | 22.8 µM | 25.7 µM
59 | Clc1ccc(C(Cn2ccnc2)OCc2csc3c(Cl)cccc23)c(Cl)c1 (stereo not given) | 17.7 µM | 23.9 µM
60 | Oc1ccc(/C=N/NC(=S)N2CCOCC2)cc1 | 6.06 µM | 6.83 µM
61 | O=C(c1cc(COc2ccc(F)cc2F)on1)N1CCCC(c2ccccc2)C1 (stereo not given) | 53.8 µM | > 100 µM
62 | Cc1ccc2[nH]c(C)c(CCNC(=O)c3cc4cc([N+](=O)[O-])ccc4oc3=O)c2c1 | 11.2 µM | 17.8 µM
63 | COc1ccc(SC[C@H](Cc2ccccc2)N2CCN(CCc3ccccc3)CCC2=O)cc1 | 40.6 µM | 51.4 µM
64 | COc1ccc(-c2csc3ncnc(N4CCN(c5ccccc5OC)CC4)c23)cc1 | 22.8 µM | 25.5 µM
65 | CCOC(=O)CSc1snnc1-c1ccccc1 | 29.4 µM | > 100 µM
66 | Cc1cc(C)c(C)c(N=Nc2nc3ccccc3n2C)c1C | 11.2 µM | 12.6 µM

Row | SMILES | IC50 | IC90
67 | Cc1ccc2c(c1)C1C[N+](C)(CC(=O)c3ccc(Cl)cc3Cl)CCC1N2C(=O)c1ccc(F)cc1 (stereo not given) | 32.2 µM | 41 µM
68 | CCOC(=O)C1(CCOc2ccccc2)CCN(Cc2cccc(-n3cccn3)c2)CC1 | 28.1 µM | 34.5 µM
69 | COC(=O)N/N=C/c1c[n+]([O-])c2ccccc2[n+]1[O-] | 18.7 µM | 27.5 µM
70 | CC[n+]1c(/C=C/N(C)c2ccccc2)n(-c2ccccc2)c2ccc(-c3nc4ccccc4s3)cc21 | 1.13 µM | 1.36 µM
71 | Cc1ccc(-c2nc3ccsc3c(=O)o2)cc1 | 4.19 µM | > 100 µM
72 | CCCCCCCCCCCCCCCC[N+](C)(C)CC | 36.1 µM | 48.4 µM
73 | CCN(CC)CCNC(=O)c1ccc(NC(=O)c2cn(-c3ccccc3)nc2-c2cccs2)cc1 | 24.4 µM | 27.6 µM
74 | CCCCC(=O)OCC(=O)N1N=C(c2c[nH]c3ccccc23)C(O)C1c1ccc(OC)cc1 (stereo not given) | 22 µM | 25.1 µM
75 | Cc1ccc(/C=N/NC(=S)NC(C)C)o1 | 42.4 µM | 46.7 µM
76 | Nc1cc(Cl)c2nonc2c1[N+](=O)[O-] | 9.11 µM | 11.7 µM
77 | CN(C(=S)NC(=O)c1ccc(Cl)cc1)C1CCCCC1 | 9.46 µM | 14.7 µM
78 | O=C1Nc2ccc(Br)cc2/C1=C/C(=O)c1ccc2c(c1)OCO2 | 18.1 µM | 23.7 µM
79 | COc1ccc(C(CCNCc2ccc(OC(C)C)cc2)C(C)C)cc1 (stereo not given) | 23.8 µM | 32.4 µM
80 | Cc1ccc(NC(=S)N(CCCN2CCCC2)Cc2cccn2Cc2ccc(Cl)cc2)cc1C | 75.5 µM | > 100 µM
81 | O=C(CSC(=S)N1CCCC1)c1cc(Br)cc(Br)c1O | 41.2 µM | 45.4 µM
82 | CC(O)CNc1nc2ccccc2n1-c1ncnc2sc3c(c12)CCC3 (stereo not given) | 35.2 µM | 42.1 µM
83 | Cc1ccc(NC(=O)c2sccc2-n2cccc2)c(C)c1 | – | > 100 µM
84 | CSCCCNC(=S)N1CCN(c2ccc(C(C)=O)cc2)CC1 | 37.2 µM | 49.7 µM
85 | Oc1cc(Nc2ccccc2)cc2cccnc12 | 19.7 µM | 24.7 µM
86 | CC(C)(C)NC(=O)[C@@H]1C[C@@H]2CCCC[C@@H]2CN1C[C@@H](O)[C@H](Cc1ccccc1)NC(=O)[C@H](CC(N)=O)NC(=O)c1ccc2ccccc2n1 | 32.9 µM | 52.8 µM
87 | COc1ccc(/C=C2\CCC/C(=C\C=N\N(C)C)C2=O)cc1 | 12.4 µM | 17.8 µM

— PubChem BioAssay AID449764 (Southern Research Specialized Biocontainment Screening …, 2010)
